Measured values reported in ChEMBL document CHEMBL5653615 (J Biol Chem, 2013).

Key:
[1] = molecular target: Macrophage colony-stimulating factor 1 receptor (Homo sapiens) (UniProt P07333); assay: Inhibition of human FMS at 18.6 nM by HotSpot assay relative to control
[2] = molecular target: Mitogen-activated protein kinase kinase kinase 20 (Homo sapiens) (UniProt Q9NYL2); assay: Inhibition of human MLTK at 18.6 nM by HotSpot assay relative to control
[3] = molecular target: T1, G protein-coupled receptor kinase 3 (Homo sapiens) (UniProt P35626); assay: Inhibition of human GRK3 at 18.6 nM by HotSpot assay relative to control
T1 sequence (whole entry): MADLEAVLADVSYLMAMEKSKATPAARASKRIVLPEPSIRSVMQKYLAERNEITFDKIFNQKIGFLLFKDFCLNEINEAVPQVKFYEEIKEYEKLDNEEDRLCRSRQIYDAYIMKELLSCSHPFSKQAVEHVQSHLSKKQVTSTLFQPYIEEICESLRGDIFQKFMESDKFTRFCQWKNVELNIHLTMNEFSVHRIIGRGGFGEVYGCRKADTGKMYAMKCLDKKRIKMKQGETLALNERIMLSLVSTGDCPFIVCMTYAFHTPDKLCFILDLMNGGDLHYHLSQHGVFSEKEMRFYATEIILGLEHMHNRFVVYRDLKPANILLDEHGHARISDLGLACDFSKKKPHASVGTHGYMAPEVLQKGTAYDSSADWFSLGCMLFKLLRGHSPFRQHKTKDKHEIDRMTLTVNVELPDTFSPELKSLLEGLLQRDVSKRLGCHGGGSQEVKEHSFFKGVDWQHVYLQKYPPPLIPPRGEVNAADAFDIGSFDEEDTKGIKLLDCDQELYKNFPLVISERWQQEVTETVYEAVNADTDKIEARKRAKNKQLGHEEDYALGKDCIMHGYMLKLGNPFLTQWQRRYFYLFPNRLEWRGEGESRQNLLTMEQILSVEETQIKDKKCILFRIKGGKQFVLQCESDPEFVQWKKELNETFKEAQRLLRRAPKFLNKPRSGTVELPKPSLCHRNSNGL

[4] = molecular target: T2, Dual specificity mitogen-activated protein kinase kinase 6 (Homo sapiens) (UniProt P52564); assay: Inhibition of human MKK6 at 1.82 nM by HotSpot assay relative to control
T2 sequence (whole entry): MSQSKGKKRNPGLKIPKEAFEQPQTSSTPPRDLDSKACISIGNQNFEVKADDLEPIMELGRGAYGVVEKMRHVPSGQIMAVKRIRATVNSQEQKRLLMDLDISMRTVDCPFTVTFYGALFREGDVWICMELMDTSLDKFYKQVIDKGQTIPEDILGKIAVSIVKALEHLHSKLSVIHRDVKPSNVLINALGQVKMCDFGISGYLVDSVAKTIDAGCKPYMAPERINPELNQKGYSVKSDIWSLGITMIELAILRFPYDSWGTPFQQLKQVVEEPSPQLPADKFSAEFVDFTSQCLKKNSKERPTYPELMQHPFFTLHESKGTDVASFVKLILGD

[5] = molecular target: T3, Dual specificity tyrosine-phosphorylation-regulated kinase 2 (Homo sapiens) (UniProt Q92630); assay: Inhibition of human DYRK2 at 1.82 nM by HotSpot assay relative to control
T3 sequence (whole entry): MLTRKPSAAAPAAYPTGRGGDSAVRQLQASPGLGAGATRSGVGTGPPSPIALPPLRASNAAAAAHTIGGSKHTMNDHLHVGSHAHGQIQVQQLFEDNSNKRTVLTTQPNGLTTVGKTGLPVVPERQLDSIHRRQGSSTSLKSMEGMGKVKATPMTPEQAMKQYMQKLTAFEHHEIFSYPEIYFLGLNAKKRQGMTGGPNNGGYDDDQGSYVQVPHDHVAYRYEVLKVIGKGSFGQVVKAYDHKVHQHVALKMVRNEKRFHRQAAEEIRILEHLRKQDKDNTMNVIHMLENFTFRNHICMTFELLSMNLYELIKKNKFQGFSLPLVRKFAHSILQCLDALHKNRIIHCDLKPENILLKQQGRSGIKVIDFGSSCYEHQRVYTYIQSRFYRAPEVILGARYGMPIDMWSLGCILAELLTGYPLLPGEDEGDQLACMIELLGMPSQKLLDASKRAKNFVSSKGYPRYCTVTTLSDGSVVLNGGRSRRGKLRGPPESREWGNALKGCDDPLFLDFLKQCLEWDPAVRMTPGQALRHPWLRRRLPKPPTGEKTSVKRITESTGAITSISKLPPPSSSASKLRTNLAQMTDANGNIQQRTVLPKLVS

[6] = molecular target: Tyrosine-protein kinase FRK (Homo sapiens) (UniProt P42685); assay: Inhibition of human FRK at 1.82 nM by HotSpot assay relative to control
Chain of Tyrosine-protein kinase FRK (Homo sapiens) (P42685 whole entry): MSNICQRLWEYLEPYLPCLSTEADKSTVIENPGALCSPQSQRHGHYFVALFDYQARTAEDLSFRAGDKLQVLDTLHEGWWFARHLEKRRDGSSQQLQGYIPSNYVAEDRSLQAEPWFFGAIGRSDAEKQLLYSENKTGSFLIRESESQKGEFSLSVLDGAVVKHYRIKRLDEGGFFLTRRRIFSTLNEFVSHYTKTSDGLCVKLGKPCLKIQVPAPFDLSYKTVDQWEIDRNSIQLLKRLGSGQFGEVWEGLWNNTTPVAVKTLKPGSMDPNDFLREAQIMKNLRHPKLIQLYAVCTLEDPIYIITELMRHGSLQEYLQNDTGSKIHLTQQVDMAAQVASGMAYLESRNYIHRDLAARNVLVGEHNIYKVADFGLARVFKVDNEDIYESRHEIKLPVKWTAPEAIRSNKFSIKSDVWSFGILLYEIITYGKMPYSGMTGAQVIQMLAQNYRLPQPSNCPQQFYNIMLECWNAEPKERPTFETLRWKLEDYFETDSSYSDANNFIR

[7] = molecular target: T4, Dual serine/threonine and tyrosine protein kinase (Homo sapiens) (UniProt Q6XUX3); assay: Inhibition of human RIPK5 at 1.82 nM by HotSpot assay relative to control
T4 sequence (whole entry): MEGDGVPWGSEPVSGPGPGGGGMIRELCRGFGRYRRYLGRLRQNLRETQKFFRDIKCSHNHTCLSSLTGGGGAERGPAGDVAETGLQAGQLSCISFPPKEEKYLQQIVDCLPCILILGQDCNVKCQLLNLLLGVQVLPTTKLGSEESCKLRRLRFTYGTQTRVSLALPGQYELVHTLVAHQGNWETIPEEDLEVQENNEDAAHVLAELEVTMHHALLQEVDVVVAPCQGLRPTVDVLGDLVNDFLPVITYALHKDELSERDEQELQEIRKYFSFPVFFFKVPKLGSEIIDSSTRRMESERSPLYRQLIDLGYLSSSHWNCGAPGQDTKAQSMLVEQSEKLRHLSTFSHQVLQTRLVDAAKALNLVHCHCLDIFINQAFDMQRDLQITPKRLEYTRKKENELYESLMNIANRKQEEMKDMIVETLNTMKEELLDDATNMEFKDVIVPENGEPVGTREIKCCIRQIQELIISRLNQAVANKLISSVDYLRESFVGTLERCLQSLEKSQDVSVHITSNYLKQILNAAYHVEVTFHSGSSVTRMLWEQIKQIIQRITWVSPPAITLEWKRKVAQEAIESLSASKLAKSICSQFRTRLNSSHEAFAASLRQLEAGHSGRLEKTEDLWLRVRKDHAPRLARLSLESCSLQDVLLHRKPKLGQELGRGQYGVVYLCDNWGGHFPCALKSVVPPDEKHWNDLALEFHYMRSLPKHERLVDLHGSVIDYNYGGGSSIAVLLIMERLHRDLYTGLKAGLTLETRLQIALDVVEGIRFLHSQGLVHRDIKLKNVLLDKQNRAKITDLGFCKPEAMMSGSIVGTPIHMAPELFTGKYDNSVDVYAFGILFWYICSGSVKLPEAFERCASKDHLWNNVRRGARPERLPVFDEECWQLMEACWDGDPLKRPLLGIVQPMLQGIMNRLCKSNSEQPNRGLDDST

Chain of Mitogen-activated protein kinase kinase kinase 20 (Homo sapiens) (Q9NYL2 2-800 limits assumed): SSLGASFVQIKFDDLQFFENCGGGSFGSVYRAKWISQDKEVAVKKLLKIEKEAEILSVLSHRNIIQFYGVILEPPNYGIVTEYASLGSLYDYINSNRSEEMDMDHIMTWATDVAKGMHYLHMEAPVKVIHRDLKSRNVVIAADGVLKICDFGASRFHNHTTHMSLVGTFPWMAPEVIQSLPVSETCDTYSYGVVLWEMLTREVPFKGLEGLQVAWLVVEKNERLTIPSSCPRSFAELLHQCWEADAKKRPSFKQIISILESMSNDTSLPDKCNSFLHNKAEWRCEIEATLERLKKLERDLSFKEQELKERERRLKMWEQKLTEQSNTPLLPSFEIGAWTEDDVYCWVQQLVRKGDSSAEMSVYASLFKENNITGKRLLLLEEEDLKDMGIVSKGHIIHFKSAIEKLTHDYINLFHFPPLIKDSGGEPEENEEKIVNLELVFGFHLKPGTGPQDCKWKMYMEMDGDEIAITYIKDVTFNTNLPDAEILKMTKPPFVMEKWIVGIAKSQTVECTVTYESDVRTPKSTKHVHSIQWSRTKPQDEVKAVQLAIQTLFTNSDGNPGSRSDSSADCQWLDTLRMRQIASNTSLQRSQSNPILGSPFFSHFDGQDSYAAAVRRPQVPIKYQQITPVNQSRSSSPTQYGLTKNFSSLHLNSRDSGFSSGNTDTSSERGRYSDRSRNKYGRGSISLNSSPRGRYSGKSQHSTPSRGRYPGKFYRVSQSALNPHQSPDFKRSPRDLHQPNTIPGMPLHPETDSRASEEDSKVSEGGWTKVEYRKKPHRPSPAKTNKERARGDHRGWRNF
Chain of Macrophage colony-stimulating factor 1 receptor (Homo sapiens) (P07333 whole entry): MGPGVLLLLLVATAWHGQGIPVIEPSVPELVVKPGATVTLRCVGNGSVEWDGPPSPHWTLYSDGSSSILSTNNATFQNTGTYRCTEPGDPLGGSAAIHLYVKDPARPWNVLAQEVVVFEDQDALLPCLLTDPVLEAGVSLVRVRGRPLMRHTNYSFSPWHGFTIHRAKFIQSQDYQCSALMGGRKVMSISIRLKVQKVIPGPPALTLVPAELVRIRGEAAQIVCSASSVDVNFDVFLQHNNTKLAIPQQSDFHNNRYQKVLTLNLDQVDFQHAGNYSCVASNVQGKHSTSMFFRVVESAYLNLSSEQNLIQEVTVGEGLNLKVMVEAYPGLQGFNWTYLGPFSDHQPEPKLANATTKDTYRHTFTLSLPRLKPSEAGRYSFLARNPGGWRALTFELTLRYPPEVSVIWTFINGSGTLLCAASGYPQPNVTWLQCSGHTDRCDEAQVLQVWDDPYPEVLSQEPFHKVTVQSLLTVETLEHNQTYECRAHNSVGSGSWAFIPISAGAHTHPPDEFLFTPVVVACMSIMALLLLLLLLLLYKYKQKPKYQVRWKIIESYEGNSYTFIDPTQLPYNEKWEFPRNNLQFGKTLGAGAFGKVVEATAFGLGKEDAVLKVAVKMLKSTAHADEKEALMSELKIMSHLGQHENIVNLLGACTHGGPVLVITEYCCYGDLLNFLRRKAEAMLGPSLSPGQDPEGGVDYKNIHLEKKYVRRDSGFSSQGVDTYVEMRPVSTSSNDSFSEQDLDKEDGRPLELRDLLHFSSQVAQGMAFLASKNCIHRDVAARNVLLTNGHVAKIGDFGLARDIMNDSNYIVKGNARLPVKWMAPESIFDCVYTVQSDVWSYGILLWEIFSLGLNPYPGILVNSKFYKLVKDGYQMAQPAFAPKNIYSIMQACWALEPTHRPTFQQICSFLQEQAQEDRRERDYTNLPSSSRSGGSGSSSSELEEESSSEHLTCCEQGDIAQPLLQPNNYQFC

SMILES: C[C@]1(O)C[C@@H](c2nc(-c3ccc4ccc(-c5ccccc5)nc4c3)c3c(N)nccn32)C1
- inhibition [1]: 5.25%
- inhibition [2]: -2.34%
- inhibition [3]: -0.17%

SMILES: C[C@@]1(C(=O)Nc2ccc(F)nc2)CCCN1c1nc(Nc2cc(C3CC3)n[nH]2)c2cccn2n1
- inhibition [4]: 3.26%
- inhibition [5]: 0%
- inhibition [6]: 0.97%
- inhibition [7]: 4.61%
